Publication PMC8591201, “Anti-Tumor Activity of AZD4547 Against NTRK1 Fusion Positive Cancer Cells Through Inhibition of NTRKs” (Frontiers in Oncology, 2021)

Legend:
TRKB [1] = biological target: T1, TRKB (Homo sapiens, UniProt Q16620); assay: radiometric biochemical kinase assay
T1 construct: gene NTRK2

TRKA [2] = biological target: T2, TRKA (Homo sapiens, UniProt P04629); assay: radiometric biochemical kinase assay
T2 construct: gene NTRK1

TRKA G667S = system: T3, TRKA G667S; assay: cells; design: species or system Ba/F3; CellTiter-Glo anti-proliferation of Ba/F3 cells transformed with ETV6-NTRK fusions; settings: Mus musculus, BaF3, 72 h; read-out: AZD4547 GI50
T3 construct: ETV6 (1-336)-NTRK1 kinase domain (434-790) fusion expressed in Ba/F3
Description: (§1) To obtain the GI50 value of a substance, cell viability was measured using MTT (G4000, Promega, USA) for KM12(Luc) cell and Cell titer glo (G7572, Promega, USA) for other cell lines. For adherent cells, cells were seeded at 5,000 cells/well in a 96-well plate and treated with a substance one day after cell seeding. For suspension cells, 10,000 cells/well were seeded and the substance was treated after 4 h stabilization of cells. The substance was treated at 10 points of 1:3 serial dilution (0–100 µmol/L) for 72 h. For MTT assay, 15 µL dye solution was added to each well and incubated 4 h at 37°C. 100 µL of solubilization solution was added and followed 1 hr incubation. Absorbance at 570 nm of each well was recorded using EnVision microplate reader (Perkin Elmer). For Cell titer glo assay, Cell titer glo reagent was treated in each well and measured the luminescence by EnVision microplate reader (Perkin Elmer). Viable cells in each well were normalized by using 0.5% DMSO-treated wells (100%). The inhibitor dose−response curve was fitted and GI50 values were calculated using Prism 7.0 software (GraphPad). All assays were performed in duplicate and the standard deviation (SD) was determined from two independent experiments. To investigate the inhibitory activity of AZD4547 against clinically relevant TRK mutants which have resistance to the known TRK inhibitors ([8], [44]), we established Ba/F3 cell lines harboring the ETV6-NTRKs fusion genes (NTRK1, NTRK1G595R, NTRK1G667A, NTRK1G667C, NTRK1G667S and NTRK2) ( Supplementary Figure 2 ). The mutation status of each established cell line was confirmed by sequencing of its cDNA ( Supplementary Figure 2 ). The anti-proliferation activity of AZD4547 was then measured in each cell line ( Figure 2A and Table S2 ). […] However, AZD4547 has no inhibitory activity against Ba/F3 harboring clinically relevant TRKs mutants including TRKA G595R, TRKA G667S, TRKA G667C and TRKA G667A. We next evaluated if AZD4547 is capable of suppressing the phosphorylation of TRKA/B in Ba/F3 cell lines ( Figure 2B ). […] Also, phosphorylation of TRKA/B is almost completely abolished using 1 µM of AZD4547. […] (A) Summary of GI50s of AZD4547 against Ba/F3: TRKA mutants or TRKB. Cell viability after 72 h exposure to the indicated inhibitors, determined by using a cell titer glo assay in duplicate mode. Data was plotted as mean GI50 ± SD of two independent experiments. (B) AZD4547 inhibits phosphorylation of TRKA/B and PLC-gamma in Ba/F3 harboring TRKA and TRKB, respectively. […] Data are representative of three independent experiments.

TRKB [3] = system: T4, TRKB; assay: cells; design: species or system Ba/F3; CellTiter-Glo anti-proliferation of Ba/F3 cells transformed with ETV6-NTRK fusions; settings: Mus musculus, BaF3, 72 h; read-out: AZD4547 GI50
T4 construct: ETV6 (1-336)-NTRK2 kinase domain (455-822) fusion expressed in Ba/F3
Description: as §1

TRKA G667C = system: T5, TRKA G667C; assay: cells; design: species or system Ba/F3; CellTiter-Glo anti-proliferation of Ba/F3 cells transformed with ETV6-NTRK fusions; settings: Mus musculus, BaF3, 72 h; read-out: AZD4547 GI50
T5 construct: ETV6 (1-336)-NTRK1 kinase domain (434-790) fusion expressed in Ba/F3
Description: as §1

TRKA [4] = system: T6, TRKA; assay: cells; design: species or system Ba/F3; CellTiter-Glo anti-proliferation of Ba/F3 cells transformed with ETV6-NTRK fusions; settings: Mus musculus, BaF3, 72 h; read-out: AZD4547 GI50
T6 construct: ETV6 (1-336)-NTRK1 kinase domain (434-790) fusion expressed in Ba/F3
Description: as §1

TRKA G595R = system: T7, TRKA G595R; assay: cells; design: species or system Ba/F3; CellTiter-Glo anti-proliferation of Ba/F3 cells transformed with ETV6-NTRK fusions; settings: Mus musculus, BaF3, 72 h; read-out: AZD4547 GI50
T7 construct: ETV6 (1-336)-NTRK1 kinase domain (434-790) fusion expressed in Ba/F3
Description: as §1

TRKC = biological target: T8, TRKC (Homo sapiens, UniProt Q16288); assay: radiometric biochemical kinase assay
T8 construct: gene NTRK3

in vitro = assay: in vitro; design: CellTiter-Glo viability of parental Ba/F3 cells, counter-screen; settings: mouse, parental ba/f3 cells; read-out: AZD4547 parental
Description: To obtain the GI50 value of a substance, cell viability was measured using MTT (G4000, Promega, USA) for KM12(Luc) cell and Cell titer glo (G7572, Promega, USA) for other cell lines. For adherent cells, cells were seeded at 5,000 cells/well in a 96-well plate and treated with a substance one day after cell seeding. For suspension cells, 10,000 cells/well were seeded and the substance was treated after 4 h stabilization of cells. The substance was treated at 10 points of 1:3 serial dilution (0–100 µmol/L) for 72 h. For MTT assay, 15 µL dye solution was added to each well and incubated 4 h at 37°C. 100 µL of solubilization solution was added and followed 1 hr incubation. Absorbance at 570 nm of each well was recorded using EnVision microplate reader (Perkin Elmer). For Cell titer glo assay, Cell titer glo reagent was treated in each well and measured the luminescence by EnVision microplate reader (Perkin Elmer). Viable cells in each well were normalized by using 0.5% DMSO-treated wells (100%). The inhibitor dose−response curve was fitted and GI50 values were calculated using Prism 7.0 software (GraphPad). All assays were performed in duplicate and the standard deviation (SD) was determined from two independent experiments. […] Cell viability after 72 h exposure to the indicated inhibitors, determined by using a cell titer glo assay in duplicate mode. […]

T1 sequence (Q16620 32-822): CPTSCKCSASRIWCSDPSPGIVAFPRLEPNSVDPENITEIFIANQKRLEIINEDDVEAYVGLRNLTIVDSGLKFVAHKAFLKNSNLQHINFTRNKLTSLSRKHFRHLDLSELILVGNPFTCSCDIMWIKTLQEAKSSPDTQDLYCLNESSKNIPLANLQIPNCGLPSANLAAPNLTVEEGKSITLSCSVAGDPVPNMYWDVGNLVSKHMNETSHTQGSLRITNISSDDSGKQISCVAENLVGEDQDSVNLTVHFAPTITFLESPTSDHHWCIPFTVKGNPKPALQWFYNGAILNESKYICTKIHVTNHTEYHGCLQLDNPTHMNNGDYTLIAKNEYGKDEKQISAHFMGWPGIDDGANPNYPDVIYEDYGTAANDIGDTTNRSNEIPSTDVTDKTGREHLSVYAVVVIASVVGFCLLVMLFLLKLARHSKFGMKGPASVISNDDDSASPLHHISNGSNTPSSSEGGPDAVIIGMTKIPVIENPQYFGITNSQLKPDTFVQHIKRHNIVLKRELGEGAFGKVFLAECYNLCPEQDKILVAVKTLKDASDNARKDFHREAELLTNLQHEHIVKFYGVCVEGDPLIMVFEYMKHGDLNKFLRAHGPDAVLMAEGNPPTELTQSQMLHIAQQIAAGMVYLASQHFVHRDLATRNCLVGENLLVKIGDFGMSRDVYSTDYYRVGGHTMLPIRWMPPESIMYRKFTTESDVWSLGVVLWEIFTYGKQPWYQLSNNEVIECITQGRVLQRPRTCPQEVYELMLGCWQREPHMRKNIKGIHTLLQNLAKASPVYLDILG
T8 sequence (Q16288 32-839): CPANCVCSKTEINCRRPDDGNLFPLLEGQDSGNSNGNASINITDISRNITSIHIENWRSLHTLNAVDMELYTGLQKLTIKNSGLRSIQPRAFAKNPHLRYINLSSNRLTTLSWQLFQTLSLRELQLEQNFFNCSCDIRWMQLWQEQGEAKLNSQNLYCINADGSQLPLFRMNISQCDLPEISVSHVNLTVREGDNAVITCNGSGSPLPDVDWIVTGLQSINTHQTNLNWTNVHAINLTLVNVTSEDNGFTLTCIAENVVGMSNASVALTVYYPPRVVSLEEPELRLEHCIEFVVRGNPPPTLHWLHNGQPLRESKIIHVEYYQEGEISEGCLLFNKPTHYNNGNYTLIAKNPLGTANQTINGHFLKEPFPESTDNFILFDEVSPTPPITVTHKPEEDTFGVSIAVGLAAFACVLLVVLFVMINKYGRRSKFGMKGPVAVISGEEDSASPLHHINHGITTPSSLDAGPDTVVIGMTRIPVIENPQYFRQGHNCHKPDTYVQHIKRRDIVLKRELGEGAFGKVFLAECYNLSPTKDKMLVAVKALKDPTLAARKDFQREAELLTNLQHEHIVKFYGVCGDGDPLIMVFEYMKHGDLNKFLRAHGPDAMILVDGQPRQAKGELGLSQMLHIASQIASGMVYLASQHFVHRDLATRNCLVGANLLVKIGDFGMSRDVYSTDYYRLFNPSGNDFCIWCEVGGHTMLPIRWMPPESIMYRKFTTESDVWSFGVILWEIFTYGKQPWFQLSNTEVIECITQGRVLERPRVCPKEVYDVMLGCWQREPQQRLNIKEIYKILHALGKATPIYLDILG
T2 sequence (P04629 33-796): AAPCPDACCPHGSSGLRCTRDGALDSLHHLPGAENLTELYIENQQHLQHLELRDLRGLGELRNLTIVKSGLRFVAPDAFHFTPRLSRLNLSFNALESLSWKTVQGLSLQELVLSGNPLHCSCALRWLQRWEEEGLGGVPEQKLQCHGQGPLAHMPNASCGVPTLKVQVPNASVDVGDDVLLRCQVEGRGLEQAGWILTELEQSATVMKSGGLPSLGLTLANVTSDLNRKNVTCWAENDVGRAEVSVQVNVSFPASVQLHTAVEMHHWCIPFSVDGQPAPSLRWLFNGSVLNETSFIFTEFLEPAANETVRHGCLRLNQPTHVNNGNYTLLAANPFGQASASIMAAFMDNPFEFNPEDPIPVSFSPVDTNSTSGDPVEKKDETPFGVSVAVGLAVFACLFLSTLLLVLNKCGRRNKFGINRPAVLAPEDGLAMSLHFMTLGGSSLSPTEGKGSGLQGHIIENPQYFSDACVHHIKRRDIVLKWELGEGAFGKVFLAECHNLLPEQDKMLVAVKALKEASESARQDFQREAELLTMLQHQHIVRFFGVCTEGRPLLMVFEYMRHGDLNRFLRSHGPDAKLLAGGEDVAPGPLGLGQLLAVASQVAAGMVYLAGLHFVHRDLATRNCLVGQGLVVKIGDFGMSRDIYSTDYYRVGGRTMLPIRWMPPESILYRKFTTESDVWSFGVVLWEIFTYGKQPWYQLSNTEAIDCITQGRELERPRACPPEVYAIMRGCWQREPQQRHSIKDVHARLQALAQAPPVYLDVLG

COc1cc(CCc2cc(NC(=O)c3ccc(N4C[C@@H](C)N[C@@H](C)C4)cc3)n[nH]2)cc(OC)c1 [AZD4547]
IC50 (TRKB [1]): 7.6 nM | IC50 (TRKA [2]): 8.8 nM | GI50 (TRKA G667S): > 2000 nM | GI50 (TRKB [3]): 104 ± 6.1 nM | GI50 (TRKA G667C): > 2000 nM | GI50 (TRKA [4]): 66 ± 11.5 nM | GI50 (TRKA G595R): > 2000 nM | IC50 (TRKC): 1 nM | CC50 at 72 h (in vitro): > 2000 nM
